Laboratory results reported in patent US12173018B2, “Penicillin-binding protein inhibitors” (priority 2018, dated 2024).
Read-outs that look alike come from different tables or passages of the source.

Key:
[1] = system: E. coli AG100; test: Broth microdilution MIC, E. coli AG100 (wild-type parent); format: cell-based; settings: Escherichia coli; wild-type parent E. coli AG100, broth microdilution; read-out: MIC E. coli AG100
Procedure: To determine the ability of test compounds to potentiate the inhibition of the growth of bacterial strains, classic cell based broth microdilution minimum inhibitory concentration (MIC) assays were employed.
(§1) Briefly, cryo-preserved bacterial cultures of challenge strains are streaked for isolation on appropriate agar medium, in this case Mueller Hinton II agar. Following incubation to allow growth of the colonies, plates are sealed with parafilm and stored refrigerated for up to two weeks. For preparation of assay inoculum and to ensure low variability, at least 5 colonies are picked from the agar plates with an inoculating loop and aseptically transferred to a culture tube containing 3 mL of Mueller-Hinton Broth (supplemented with divalent cations to required levels based on Manufacturers' certification). The broth culture is grown for 3-5 hours at 37° C. with shaking at 200 rpm. Meanwhile, 2-fold serial dilutions of test compounds are conducted in a 96 well plate with a final volume of 75 μL per well at 2-fold the final desired concentration. After the dilution plates are set up the growing cultures are then diluted in a cuvette containing MH II broth and the optical density is measured at 600 nm. The Inoculum is diluted such that 75 μL of this culture in Mueller-Hinton Broth results in a starting bacterial concentration of 5×10^5 CFU/mL when added to the dilution plates. The plates are incubated for 16-20 hours at 37° C. The MIC values are read visually as the lowest concentration well with no bacterial growth.

[2] = system: K. pneumoniae 848844; test: microbe, parasite or virus in culture; format: cell-based, Klebsiella pneumoniae; settings: Klebsiella pneumoniae; K. pneumoniae 848844 producing SHV-11 and KPC-2; read-out: MIC K. pneumoniae 848844
Procedure: (§2) To determine the ability of test compounds to potentiate the inhibition of the growth of bacterial strains, classic cell based broth microdilution minimum inhibitory concentration (MIC) assays were employed. MIC assays are performed according to CLSI methods except where otherwise noted (CLSI, 2011 and CLSI, 2009). The reference type strain E. coli ATCC 25922, the wild-type parent strain E. coli AG100, the hyper-permeable E. coli 901C and E. coli D22 and the E. coli AG100A strain lacking the acrAB efflux pump encoding genes were used to determine the ability of the PBP inhibitors to penetrate the outer membrane of gram-negative bacteria and inhibit bacterial growth. […] The P. aeruginosa PAO1, P. aeruginosa ATCC 27853 and A. baumannii ATCC 19606, along with the hyper-permeable P. aeruginosa ATCC 35151 and an engineered efflux pump-compromised strain of P. aeruginosa (ΔmexAB-oprM) were used to determine the ability of PBP inhibitors to penetrate the outer membrane of P. aeruginosa and A. baumannii and assess antibacterial activity against these important gram-negative organisms.
as §1

[3] = target: E. coli PBP3 (Escherichia coli (strain K12), UniProt P0AD68); test: E. coli PBP3 Bocillin-FL fluorescence polarization competition binding assay
Sequence of E. coli PBP3 (P0AD68 whole entry): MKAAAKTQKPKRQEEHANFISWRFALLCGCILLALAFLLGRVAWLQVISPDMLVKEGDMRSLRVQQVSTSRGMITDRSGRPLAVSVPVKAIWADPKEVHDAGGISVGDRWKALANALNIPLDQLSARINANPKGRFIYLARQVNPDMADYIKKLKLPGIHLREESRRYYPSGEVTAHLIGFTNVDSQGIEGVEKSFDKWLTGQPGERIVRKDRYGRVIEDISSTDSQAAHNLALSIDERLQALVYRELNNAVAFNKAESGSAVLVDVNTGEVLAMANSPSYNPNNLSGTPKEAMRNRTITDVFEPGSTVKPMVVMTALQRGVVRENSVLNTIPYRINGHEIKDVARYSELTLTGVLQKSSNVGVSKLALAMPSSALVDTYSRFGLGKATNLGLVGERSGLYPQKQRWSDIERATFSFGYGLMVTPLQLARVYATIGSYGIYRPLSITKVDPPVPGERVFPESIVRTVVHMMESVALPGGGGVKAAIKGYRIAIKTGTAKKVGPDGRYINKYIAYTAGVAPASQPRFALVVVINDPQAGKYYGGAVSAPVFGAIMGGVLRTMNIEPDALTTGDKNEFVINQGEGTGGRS
Excerpt: To determine the ability of boronic acid-based test PBP inhibitors to bind Penicillin Binding Proteins (PBPs), Bocillin-FL (fluorescently-labeled penicillin V; ThermoFisher Scientific) was used in a fluorescence polarization (FP) competition binding assay to assess inhibitor binding to PBP2, PBP3 or PBP4 from Escherichia coli. PBPs were cloned and purified as described previously (King, D. T, et al., ACS Infectious Diseases 2015, 1, 175-184). To establish assay conditions for competition binding, an enzyme titration/saturation binding experiment was initially performed. Bocillin-FL was prepared at 0.2 μM in a buffer comprised of 50 mM Hepes (pH 8.0), 300 mM NaCl and 5% (v/v) glycerol. Saturation binding was performed by mixing 40 μl of PBP solutions ranging in concentrations from 0-12 μM with 40 μl of the 0.2 μM Bocillin-FL solution, in individual wells of a black 384-well microplate. FP was measured immediately upon mixing (Excitation, 490 nm; Emission, 520 nm; g-factor, 0.96), using a Cytation3 (BioTek) microplate reader and measured continuously for up to 120 minutes. […] Assays (80 μl final volume) were performed with PBPs at a final concentration of 1.5 μM, Bocillin-FL at 0.1 μM and beta-lactam concentrations that ranged from 0-1000 μM. […] Bocillin-FL was added and the FP immediately measured for 60 minutes (90 minutes for PBP2). The beta-lactam potency was reported as the concentration of beta-lactam required to reduce binding of Bocillin-FL by […] (EC50). […] Binding assays for boronic acid PBP inhibitors were performed in an identical fashion.

[4] = system: E. coli 901C; test: microbe, parasite or virus in culture; format: cell-based; settings: Escherichia coli; hyper-permeable E. coli 901C, broth microdilution; read-out: MIC E. coli 901C
Procedure: as §2, §1

[5] = system: E. coli AG100A; test: microbe, parasite or virus in culture; format: cell-based; settings: Escherichia coli, read-out: MIC E. coli AG100A
Procedure: as §2, §1

[6] = system: K. pneumoniae UMM; test: microbe, parasite or virus in culture; format: cell-based; settings: Klebsiella pneumoniae; K. pneumoniae UMM producing SHV-5 and KPC-2; read-out: MIC K. pneumoniae UMM
Procedure: as §2, §1

[7] = system: E. coli D22; test: microbe, parasite or virus in culture; format: cell-based; settings: Escherichia coli; hyper-permeable E. coli D22, broth microdilution; read-out: MIC E. coli D22
Procedure: as §2, §1

[8] = system: K. pneumoniae SI-117; test: microbe, parasite or virus in culture; format: cell-based; settings: Klebsiella pneumoniae, SI117, read-out: MIC K. pneumoniae SI-117
Procedure: as §2, §1

[9] = system: E. coli ATCC 25922; test: Broth microdilution MIC, E. coli ATCC 25922; format: cell-based; settings: Escherichia coli
Procedure: as §2, §1

[10] = ATCC25922, E. coli ATCC 25922, broth microdilution, read-out: MIC E. coli 25922

SMILES	MIC [1] [µg/mL]	MIC [2] [µg/mL]	EC50 [3] [µM]	MIC [4] [µg/mL]	MIC [5] [µg/mL]	MIC [6] [µg/mL]	MIC [7] [µg/mL]	MIC [8] [µg/mL]	MIC [9, 10] [µg/mL]	MIC ([9]; ATCC25922, read-out: MIC E. coli 25922) [µg/mL]
CCN1CCN(C(=O)NC(C(=O)N[C@H]2Cc3ccc(F)c(C(=O)O)c3OB2O)c2cccnc2)C(=O)C1=O (stereo partly drawn) [Example 141, (3R)-3-(2-(4-ethyl-2,3-dioxopiperazine-1-carboxamido)-2-(pyridin-3-yl)acetamido)-7-fluoro-2-hydroxy-3,4-dihydro-2H-benzo[e][1,2]oxaborinine-8-carboxylic acid]	> 128	> 128	30 to 500	2 to 4	32 to 64	32 to 64	8 to 16	> 128	> 128	–
CCN1CCN(C(=O)NC(C(=O)N[C@H]2Cc3cccc(C(=O)O)c3OB2O)c2ccc(O)c(S(N)(=O)=O)c2)C(=O)C1=O (stereo partly drawn) [Example 143, (3R)-3-(2-(4-ethyl-2,3-dioxopiperazine-1-carboxamido)-2-(4-hydroxy-3-sulfamoylphenyl)acetamido)-2-hydroxy-3,4-dihydro-2H-benzo[e][1,2]oxaborinine-8-carboxylic acid]	32 to 64	> 128	–	< 0.25	2 to 4	32 to 64	2 to 4	> 128	32 to 64	–
CCN1CCN(C(=O)NC(C(=O)N[C@H]2Cc3cccc(C(=O)O)c3OB2O)c2ccc(OC)c(S(N)(=O)=O)c2)C(=O)C1=O (stereo partly drawn) [Example 144, (3R)-3-(2-(4-ethyl-2,3-dioxopiperazine-1-carboxamido)-2-(4-methoxy-3-sulfamoylphenyl)acetamido)-2-hydroxy-3,4-dihydro-2H-benzo[e][1,2]oxaborinine-8-carboxylic acid]	8 to 16	> 128	30 to 500	0.5 to 1	8 to 16	32 to 64	8 to 16	> 128	> 128	–
CCN1CCN(C(=O)N[C@H](C(=O)N[C@H]2Cc3cccc(C(=O)O)c3OB2O)c2ccc(O)c(F)c2)C(=O)C1=O [Example 155, (R)-3-((S)-2-(4-ethyl-2,3-dioxopiperazine-1-carboxamido)-2-(3-fluoro-4-hydroxyphenyl)acetamido)-2-hydroxy-3,4-dihydro-2H-benzo[e][1,2]oxaborinine-8-carboxylic acid]	> 128	> 128	30 to 500	0.5 to 1	8 to 16	> 128	8 to 16	> 128	> 128	–
CCN1CCN(C(=O)NC(C(=O)N[C@H]2Cc3cccc(C(=O)O)c3OB2O)c2ncccc2F)C(=O)C1=O (stereo partly drawn) [Example 162, (3R)-3-(2-(4-ethyl-2,3-dioxopiperazine-1-carboxamido)-2-(3-fluoropyridin-2-yl)acetamido)-2-hydroxy-3,4-dihydro-2H-benzo[e][1,2]oxaborinine-8-carboxylic acid]	32 to 64	> 128	30 to 500	0.5 to 1	2 to 4	32 to 64	8 to 16	32 to 64	32 to 64	–
CCN1CCN(C(=O)NC(C(=O)N[C@H]2Cc3cccc(C(=O)O)c3OB2O)c2ncc(C(=O)NCCO)cc2F)C(=O)C1=O (stereo partly drawn) [Example 241, (3R)-3-(2-(4-ethyl-2,3-dioxopiperazine-1-carboxamido)-2-(3-fluoro-5-((2-hydroxyethyl)carbamoyl)pyridin-2-yl)acetamido)-2-hydroxy-3,4-dihydro-2H-benzo[e][1,2]oxaborinine-8-carboxylic acid]	> 128	> 128	–	0.5 to 1	8 to 16	> 128	8 to 16	> 128	–	> 128
